{"source": "paper PMC12102733", "about": "“The mycotoxin Beauvericin is an uncompetitive inhibitor of Cathepsin B” (Protein Science : A Publication of the Protein Society, 2025)", "key": {"[1]": {"biological_target": "T1, human CTSB (Homo sapiens, UniProt P07858)", "T1 construct": "purchased R&D Biosystems 953‐CY", "assay": "Enzyme kinetics of recombinant human CTSB in the presence of BEA", "type": "biochemical", "settings": "uncompetitive; approximated from closest neighbor intersection point of [S]/v vs. [I] plot; Z-Leu-Arg AMC substrate, BEA 0-25 μM, 25 mM MES pH 5, 26°C; read-out: K i (estimated)", "procedure": "Recombinant human CTSB (R&D Biosystems, Cat# 953‐CY) was activated in a solution of 25 mM MES pH 5 and 5 mM DTT at a protein concentration of 25 μg/mL, as indicated by the manufacturer. The activation was carried out by incubating the solution in a thermal bath at 26°C for 30 min and then diluting it to a concentration of 0.2 μg/mL in a 25 mM MES buffer pH 5. Complete conversion of Procathepsin B into its cleaved form by activation was verified by SDS‐PAGE (Figure S1, Supporting Information).\nReactions were carried out in a 96‐well black microplate (Greiner Bio‐One, Cat# 675086) in a final volume of 100 μL, using 20 ng of enzyme with increasing concentrations of the fluorogenic substrate Z‐Leu‐Arg AMC (R&D Biosystems, Cat# ES008) (from 0 to 200 μM) and BEA (from 0 to 25 μM).\nProgress curves were measured using a TECAN infinite M plex microplate reader with an excitation wavelength of 380 nm and an emission wavelength of 460 nm. All the components, except the enzyme, were loaded onto the plate and were left to reach a temperature of 26°C. Protein samples were loaded using a multichannel pipette. Plates were shaken using a pulse of 3.5 s with an amplitude of 4.5 mm. Data was collected for a total of 1400 s with a reading interval of 45 s.\nReaction rates were calculated from the progress curves using linear regression. […]"}, "[2]": {"assay": "Solubility in aqueous buffers", "type": "physicochemical", "settings": "0.1% (v/v) Tween 20 used to increase solubility", "procedure": "NMR experiments were performed at 298 K on Bruker Avance III HD spectrometers operating at 750 MHz, equipped with 5 mm triple resonance TCI (^1H, ^13C, ^15N) cryoprobes and shielded z‐gradients. BEA compound was purchased (Item No. 11426) from Cayman Chemical, Ann Arbor, Michigan, USA, and recombinant human CTSB (6His tag at the C‐terminus) was purchased (Item No. 153921.10) from Biomol GmbH, Hamburg, Germany. Both CTSB and BEA were used without any further purifications. The purity of the compound (>95%) was checked by 1D ^1H NMR of 250 μM BEA compound measured (256 scans) in 90% (v/v) DMSOd6 (Figure 2a). […] To perform STD‐NMR experiments, 5 μM of CTSB and 250 μM BEA were prepared in 25 mM oxalic acid/sodium oxalate, 5% (v/v) DMSOd6, pH 5.0, 10% (v/v) D2O, and 0.1% (v/v) Tween 20. The STD‐NMR spectra were acquired with 4928 scans, and the subtraction of the reference spectrum was performed internally via phase cycling after every scan to obtain the STD effect. […] There was no compound signal detected below 0 ppm. […] The STD intensity of the aromatic proton STD effect was set to 100% as a reference, and the relative intensities were determined (Mayer and Meyer [2001]). […] Data was processed and analyzed with TopSpin 3.2 (Bruker BioSpin). […]"}}, "data": [{"compound": "CC(C)[C@H]1OC(=O)[C@H](Cc2ccccc2)N(C)C(=O)[C@@H](C(C)C)OC(=O)[C@H](Cc2ccccc2)N(C)C(=O)[C@@H](C(C)C)OC(=O)[C@H](Cc2ccccc2)N(C)C1=O", "note": "[BEA, Beauvericin]", "values": [{"measurement": "Ki", "setting": "[1]", "value": "~44.3", "unit": "µM"}, {"measurement": "solubility in aqueous buffers", "setting": "[2]", "value": "sparingly soluble in aqueous buffers"}]}]}
